Data set [1] deals with C57BL/6 mice challenged with a lethal dose of lipopolysaccharide (LPS). Put plainly: LPS-induced lung injury mouse model of ARDS, survival. Type of data set: in vivo. On the procedure: C57BL/6 mice were pretreated with either 5.76 mg/kg aCT1 peptide, 5.76 mg/kg control peptide, or PBS vehicle control prior to inoculation with a lethal dose (35 mg/kg) of LPS. For FIG. 2A, n=20-22/group and p<0.0001 by Log-rank Mantel-Cox test; for FIG. 2B, n=5-8/group and p<0.001 by Log-rank Mantel-Cox test. Doses are reported as presented dose, with estimated animal body weight of 25 grams.
Studies were undertaken to assess whether delivery of aCT1 to the respiratory tract in animal models of ARDS would reduce epithelial and endothelial breakdown, thereby preserving the air-liquid barrier while preventing fluid accumulation and reducing immune cell infiltration, resulting in the amelioration of ARDS pathology and preserving lung function to improve survival. Using a well characterized mouse model of ARDS, we investigated whether aCT1 applied directly to the lungs could inhibit severe endotoxin induced lung injury. C57BL/6 mice were intranasally challenged with a lethal dose of lipopolysaccharide (LPS) and were treated with aCT1 immediately prior to LPS administration (FIG. 2A), or six (6) hours post LPS exposure (FIG. 2B).

Data set [2] deals with normal human bronchial epithelial cells (NHBEs). As to conditions: NHBEs treated with 100 mM alcohol.
The subject of data set [3] is ocular corneal injury models. To be noted: cited from earlier work.
Data set [4] deals with normal human bronchial epithelial (NHBE) cells. In words: Trans-epithelial electrical resistance (TER) after LPS exposure. As to conditions: aCT1 pre-treatment, 10 μg LPS, 72 hours. Type of data set: cell-based. On the procedure:
Normal human bronchial epithelial (NHBE) cells were exposed to 10 μg LPS. […] (n=3/group; p-values reported at 72 hours compared to LPS).
(§1) To determine if aCT1 treatment preserves junctional integrity in human lung cells, human bronchial epithelial cells (NHBEs) were grown as confluent monolayers on Transwell inserts and trans-epithelial electrical resistance (TER) recorded. TER readings measure electrical resistance across a cell monolayer and provide a quantitative metric of intercellular junction integrity.

The subject of data set [5] is cecal ligation and puncture (CLP) mouse model of sepsis. In words: Cecal ligation and puncture (CLP) mouse model of sepsis. Format: in vivo. The text has this: 3A. For FIG. 3A, n=7-9/group and p=0.052 by Log-rank Mantel-Cox test; for FIG. 3B, n=8/group and p<0.05 by Log-rank Mantel-Cox test. Doses are reported as administered dose, with estimated animal body weight of 25 grams.
Representative images are shown.

Data set [6] in a line: Intravenous (bolus) toxicity in rats. To be noted: rat, in vivo, intravenous administration, read-out: Maximum Tolerated Dose (clinical signs observed). Here is the method:
Intravenous administration (bolus) of aCT1 in rats was well tolerated and a 5 mg/kg dosing level was established as the no-observable-adverse-effect level (NOAEL). Clinical signs were only observed at aCT1 administration levels that are well above the therapeutic range of efficacy, following intravenous administration of aCT1 at ≥10 mg/kg (Maximum Tolerated Dose). The results of these studies uniformly support aCT1 tolerability when delivered locally and systemically via various routes.

For data set [7] the following is noted: human. The source says:
(§2) Clinical trials have been undertaken to assess safety of topical delivery of aCT1.

Data set [8] relates to human subjects.
Source text: as §2

The test system of data set [9] is normal human bronchial epithelial (NHBE) cells. In words: Trans-epithelial electrical resistance (TER) after H2O2 exposure. Type of data set: cell-based. To be noted: NHBE monolayers; aCT1 pre-treatment; 500 mM H2O2; 72 hours. On the procedure: (n=3/group; p-values reported at 72 hours compared to H2O2).
as §1

“Also recorded” adds a separate entry of the source. Peptide text beside a SMILES is read from it. * marks the point of attachment. Biotin = O=C1N[C@H]2[C@H](CS[C@H]2CCCCC(=O)*)N1; Ahx = NCCCCCC(=O)O

`CC[C@H](C)[C@H](NC(=O)[C@H](CCC(=O)O)NC(=O)[C@H](CC(C)C)NC(=O)[C@H](CC(=O)O)NC(=O)[C@H](CC(=O)O)NC(=O)[C@@H]1CCCN1C(=O)[C@H](CCCNC(=N)N)NC(=O)[C@@H]1CCCN1C(=O)[C@H](CCCNC(=N)N)NC(=O)[C@H](CCCCN)NC(=O)[C@H](CCCCN)NC(=O)[C@H](Cc1c[nH]c2ccccc12)NC(=O)[C@@H]1CCCN1C(=O)[C@H](CCCCN)NC(=O)[C@H](CCCNC(=N)N)NC(=O)[C@H](CCCNC(=N)N)NC(=O)[C@H](CC(N)=O)NC(=O)[C@@H]1CCCN1C(=O)[C@H](Cc1ccccc1)NC(=O)[C@H](Cc1c[nH]c2ccccc12)NC(=O)[C@@H](NC(=O)[C@H](CCCCN)NC(=O)[C@@H]1CCCN1C(=O)[C@H](CCC(N)=O)NC(=O)[C@H](CCCNC(=N)N)NC(=O)CCCCCNC(=O)CCCC[C@@H]1SC[C@@H]2NC(=O)N[C@@H]21)[C@@H](C)CC)C(=O)O` [aCT1] ({Biotin-Ahx}-RQPKIWFPNRRKPWKKRPRPDDLEI-OH; N-terminus and C-terminus assumed): the survival entry in data set [1] (lethal LPS 35 mg/kg intranasal, 5.76 mg/kg aCT1 intranasal immediately prior to LPS, p<0.0001 Log-rank) is “provides significant protection against lipopolysaccharide (LPS)-induced mortality; also recorded: significantly improved survival”; in data set [1] (lethal LPS, aCT1 six hours post LPS, p<0.001 Log-rank), “provides significant protection against lipopolysaccharide (LPS)-induced mortality; also recorded: significantly improved survival”; in data set [5] (14.34 mg/kg aCT1 intravenously immediately after CLP, p=0.052 Log-rank) it was “prolonged survival”; in [5] (aCT1 intravenously 6 hours post CLP, p<0.05 Log-rank), “prolonged survival”. Besides, in data set [2], the “electrical resistance (barrier function)” value is “improved electrical resistance”. Also, the inflammatory signaling molecules entry in [3] was “reduced inflammatory signaling molecules such as IL-6, IL-1β, TNFα, Cox-2, MMP-9, and VEGF”. In addition, the “TER / barrier integrity” value in data set [4] is on record as “stabilized barrier integrity; also recorded: significantly improved TER readings”. Besides, the “immune cell infiltration and alveolar edema (H&E lung histopathology)” value in [5] (14.34 mg/kg aCT1 immediately after CLP, lungs at 12 hours post CLP) was “significantly decreased immune cell infiltration and alveolar edema”. For the same molecule, in data set [6], the MTD was ≥ 10 mg/kg. In data set [7], this molecule displayed a half-life of 15 to 20 min. Also, in data set [8] (any preclinical study or clinical trial), the “immunogenicity (anti-aCT1 antibodies)” value was “not immunogenic”. The systemic exposure entry in data set [8] (pharmacokinetic studies in clinical trials, topical) is reported as “no systemic exposure”. For the same molecule, in [8] (topical delivery, over 482 human subjects), the “drug related adverse events” value is on record as “no drug related adverse events”. Besides, the “TER / intercellular junction integrity” value in data set [9] is reported as “stabilized intercellular junctions; also recorded: significantly increased TER readings”.

The values above are taken from US20250281574A1 (priority 2022, published 2025).
